Results on 26 molecules are retold here after patent US8372823B2, “Tetracyclic inhibitors of fatty acid amide hydrolase” (The Scripps Research Institute, priority 2007, dated 2013).

Common to all, as to assay type: biochemical
For experiment [1], the target named is T1, purified recombinant rat FAAH (Rattus norvegicus, UniProt P97612).
T1 construct: made in house; host or cells: E. coli
T1 sequence (P97612 1-579): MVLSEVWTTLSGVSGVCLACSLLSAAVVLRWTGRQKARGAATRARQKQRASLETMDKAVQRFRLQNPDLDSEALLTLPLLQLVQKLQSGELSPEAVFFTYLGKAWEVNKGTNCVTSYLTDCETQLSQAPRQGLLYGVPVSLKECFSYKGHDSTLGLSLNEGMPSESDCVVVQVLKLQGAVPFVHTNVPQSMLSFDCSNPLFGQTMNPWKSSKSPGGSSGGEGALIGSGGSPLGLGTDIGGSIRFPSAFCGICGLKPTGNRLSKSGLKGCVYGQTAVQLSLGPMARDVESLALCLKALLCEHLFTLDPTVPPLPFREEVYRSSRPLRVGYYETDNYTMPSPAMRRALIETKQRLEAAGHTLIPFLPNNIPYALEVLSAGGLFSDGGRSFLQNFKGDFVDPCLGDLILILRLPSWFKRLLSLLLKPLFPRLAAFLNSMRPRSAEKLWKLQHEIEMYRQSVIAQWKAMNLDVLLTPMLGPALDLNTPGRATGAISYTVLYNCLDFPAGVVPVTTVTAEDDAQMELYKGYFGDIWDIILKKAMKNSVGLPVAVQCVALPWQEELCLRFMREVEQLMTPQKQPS
The experiment is described as follows: FAAH enzyme assay, Ki (Dixon plot), rat FAAH. The settings on record: purified recombinant rat FAAH expressed in E. coli; 14C-oleamide hydrolysis; pH 9.0; 20-23° C.

Experiment [2] addresses T2, rat FAAH (Rattus norvegicus, UniProt P97612).
T2 construct: made in house; host or cells: E. coli
T2 sequence (P97612 1-579): T1 sequence (P97612 1-579)
The experiment is described as follows: FAAH inhibition IC50, rat. The settings on record: inhibition at 3-5 test compound concentrations. As to the method: (§1) Enzyme assays were performed at 20-23° C. with purified recombinant rat FAAH expressed in E. coli (Patricelli, M. P.; Lashuel, H. A.; et al. Biochemistry 1998, 37, 15177-15187) (unless indicated otherwise) or with solubilized COS-7 membrane extracts from cells transiently transfected with human FAAH cDNA (Giang, D. K.; Cravatt, B. F. Proc. Natl. Acad. Sci. U.S.A. 1997, 94, 2238-2242) (where specifically indicated) in a buffer of 125 mM Tris/1 mM EDTA/0.2% glycerol/0.02% Triton X-100/0.4 mM Hepes, pH 9.0 buffer (Patricelli, M. P.; Patterson, J. P.; et al. Bioorg. Med. Chem. Lett. 1998, 8, 613-618). […] NT=no data available.
(§2) IC50 values were determined from the inhibition observed at 3-5 different test compound concentrations (from three or more trials at each concentration) using the formula IC50=[I]/[K0/Ki)-1], where K0 is the control reaction rate without inhibitor and Ki is the rate with test compound at concentration [I] (Conde-Frieboes, K. et al. J. Am. Chem. Soc. 1996, 118, 5519-5525). NT=no data available.

Experiment [3] addresses T3, FAAH (Homo sapiens, UniProt O00519).
T3 sequence (O00519 1-579): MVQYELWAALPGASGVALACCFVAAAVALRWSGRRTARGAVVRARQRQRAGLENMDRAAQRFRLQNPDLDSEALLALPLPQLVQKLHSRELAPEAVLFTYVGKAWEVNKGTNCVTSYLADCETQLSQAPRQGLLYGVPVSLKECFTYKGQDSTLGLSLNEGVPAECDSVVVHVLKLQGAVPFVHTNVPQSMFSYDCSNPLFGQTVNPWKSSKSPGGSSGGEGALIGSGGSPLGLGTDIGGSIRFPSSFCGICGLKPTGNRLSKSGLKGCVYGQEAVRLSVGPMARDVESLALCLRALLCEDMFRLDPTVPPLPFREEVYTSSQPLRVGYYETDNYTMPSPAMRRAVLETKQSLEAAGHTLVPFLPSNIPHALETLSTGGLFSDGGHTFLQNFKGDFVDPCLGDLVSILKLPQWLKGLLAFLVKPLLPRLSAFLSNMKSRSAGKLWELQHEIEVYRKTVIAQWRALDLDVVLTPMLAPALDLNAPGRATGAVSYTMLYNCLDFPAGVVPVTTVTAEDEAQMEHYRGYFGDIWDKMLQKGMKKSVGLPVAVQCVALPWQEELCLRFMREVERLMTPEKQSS
The experiment can be described thus: FAAH inhibition IC50, human. Details: expressed in transfected cells; host or cells: COS-7 (transient transfection), solubilized membrane extracts. The settings on record: inhibition at 3-5 test compound concentrations. As to the method: as §1, §2

Consider `O=C(COc1ccc(OCc2ccccc2)cc1)c1ncc(-c2ccccn2)o1` [Example 11b, 2-(4-(Benzyloxy)phenoxy)-1-(5-(pyridin-2-yl)oxazol-2-yl)ethanone], for which the inhibitory constant (Ki) in experiment [1] turned out to be 5300 nM.

Consider `O=C(CCc1cccc(OCc2ccccc2)c1)c1ncc(-c2ccccn2)o1` [Example 11c, 1-Oxo-1-[5-(2-pyridyl)oxazol-2-yl]-3-(3-(benzyloxy)phenyl)-propane], for which the Ki in experiment [1] came to 25 nM. On the same count and under the same terms, with `O=C(COc1cccc(OCc2ccccc2)c1)c1ncc(-c2ccccn2)o1` [Example 11d, 2-(3-(Benzyloxy)phenoxy)-1-(5-(pyridin-2-yl)oxazol-2-yl)ethanone] the figure was 2100 nM; with `O=C(CCc1ccc(Oc2ccccc2)cc1)c1ncc(-c2ccccn2)o1` [Example 11f, 1-Oxo-1-[5-(2-pyridyl)oxazol-2-yl]-3-(4-phenoxyphenyl)propane], 3.4 nM. Take `O=C(CCc1ccc(Nc2ccccc2)cc1)c1ncc(-c2ccccn2)o1` [Example 11g, 1-Oxo-1-[5-(2-pyridyl)oxazol-2-yl]-3-(4-(phenylamino)phenyl)-propane]: the Ki in experiment [1] was determined as 2 nM. As for `O=C(CCc1ccc(Cc2ccccc2)cc1)c1ncc(-c2ccccn2)o1` [Example 11h, 1-Oxo-1-[5-(2-pyridyl)oxazol-2-yl]-3-(4-benzylphenyl)propane], the Ki in experiment [1] is 3.2 nM. On the same count and under the same terms, as for `O=C(CCc1ccc(Sc2ccccc2)cc1)c1ncc(-c2ccccn2)o1` [Example 11i, 1-Oxo-1-[5-(2-pyridyl)oxazol-2-yl]-3-(4-(phenylthio)phenyl)propane], the figure is 2.2 nM. Turning to `COC(=O)c1cccc(-c2cnc(C(=O)CCc3ccc(Oc4ccccc4)cc3)o2)n1` [Example 12, 6-{2-[3-(4-Phenoxy-phenyl)-propionyl]-oxazol-5-yl}-pyridine-2-carboxylic acid methyl ester], the Ki in experiment [1] was 13 nM. Besides, the IC50 amounted to 5 nM in experiment [2] and 2 nM in experiment [3]. In the same order, the values of `COC(=O)c1ccc(-c2cnc(C(=O)CCc3ccc(Oc4ccccc4)cc3)o2)nc1` [Example 13, 6-{2-[3-(4-Phenoxy-phenyl)-propionyl]-oxazol-5-yl}-nicotinic acid methyl ester] are 54 nM, 6 nM and 3 nM. In the same order, the values of `O=C(O)c1cccc(-c2cnc(C(=O)CCc3ccc(Oc4ccccc4)cc3)o2)n1` [Example 14, 6-{2-[3-(4-Phenoxy-phenyl)-propionyl]-oxazol-5-yl}-pyridine-2-carboxylic acid] are 65 nM, 1.5 nM and 2.7 nM. Turning to `O=C(O)c1ccc(-c2cnc(C(=O)CCc3ccc(Oc4ccccc4)cc3)o2)nc1` [Example 15, 6-{2-[3-(4-Phenoxy-phenyl)-propionyl]-oxazol-5-yl}-nicotinic acid], the Ki in experiment [1] amounted to 33 nM. In addition, the IC50 in experiment [2] was found to be 0.2 nM; in experiment [3], 0.3 nM. Taken in the same sequence, the figures for `COC(=O)c1cccc(-c2cnc(C(=O)CCc3ccc(COc4ccccc4)cc3)o2)n1` [Example 16, 6-{2-[3-(4-Phenoxymethyl-phenyl)-propionyl]-oxazol-5-yl}-pyridine-2-carboxylic acid methyl ester] were 2 nM, 1 nM and 1.2 nM.

In the case of `COC(=O)c1ccc(-c2cnc(C(=O)CCc3ccc(COc4ccccc4)cc3)o2)nc1` [Example 17], the Ki in experiment [1] was found to be 3.5 nM. Besides, the results for the IC50 in experiment [2] and in experiment [3] were 2.5 nM and 0.8 nM, respectively.

Regarding `O=C(O)c1cccc(-c2cnc(C(=O)CCc3ccc(COc4ccccc4)cc3)o2)n1` [Example 18, 6-{2-[3-(4-Phenoxymethyl-phenyl)-propionyl]-oxazol-5-yl}-pyridine-2-carboxylic acid], in experiment [1], the Ki came to 6.1 nM. The IC50 is 0.5 nM in experiment [2] and 1 nM in experiment [3]. Take `COC(=O)c1cccc(-c2cnc(C(=O)CCc3ccc(-c4ccc(CN5CCCCC5)cc4)cc3)o2)n1` [Example 34, 6-{2-[3-(4′-Piperidin-1-ylmethyl-biphenyl-4-yl)-propionyl]-oxazol-5-yl}-pyridine-2-carboxylic acid methyl ester]: the Ki in experiment [1] is 9 nM. As to `COC(=O)c1cccc(-c2cnc(C(=O)CCc3ccc(-c4ccc(CN5CCSCC5)cc4)cc3)o2)n1` [Example 36, 6-{2-[3-(4′-Thiomorpholin-4-ylmethyl-biphenyl-4-yl)-propionyl]-oxazol-5-yl}-pyridine-2-carboxylic acid methyl ester], in experiment [1], the Ki stood at 5 nM.

With `COC(=O)c1cccc(-c2cnc(C(=O)CCc3ccc(-c4ccc(CN5CCCC5)cc4)cc3)o2)n1` [Example 37], in experiment [1], the Ki was 18 nM. On the same count and under the same terms, as for `COC(=O)c1cccc(-c2cnc(C(=O)CCc3ccc(-c4ccc(CN(C)C)cc4)cc3)o2)n1` [Example 38], the figure is 29 nM. The same measure, in the same setting: as for `COC(=O)c1cccc(-c2cnc(C(=O)CCc3ccc(-c4ccc(CN5CCN(C)CC5)cc4)cc3)o2)n1` [Example 39, 6-(2-{3-[4′-(4-Methyl-piperazin-1-ylmethyl)-biphenyl-4-yl]-propionyl}-oxazol-5-yl)-pyridine-2-carboxylic acid methyl ester], the figure is 200 nM. The same measure, in the same setting: as for `O=C(O)c1cccc(-c2cnc(C(=O)CCc3ccc(-c4ccc(CN5CCCCC5)cc4)cc3)o2)n1` [Example 40, 6-{2-[3-(4′-Piperidin-1-ylmethyl-biphenyl-4-yl)-propionyl]-oxazol-5-yl}-pyridine-2-carboxylic acid], the figure is 44 nM. For the molecule `O=C(O)c1cccc(-c2cnc(C(=O)CCc3ccc(-c4ccc(CN5CCSCC5)cc4)cc3)o2)n1` [Example 42, 6-{2-[3-(4′-Thiomorpholin-4-ylmethyl-biphenyl-4-yl)-propionyl]-oxazol-5-yl}-pyridine-2-carboxylic acid], the inhibitory constant (Ki) in experiment [1] was 28 nM. Same read-out and setting: as for `O=C(O)c1cccc(-c2cnc(C(=O)CCc3ccc(-c4ccc(CN5CCCC5)cc4)cc3)o2)n1` [Example 43, 6-{2-[3-(4′-Pyrrolidin-1-ylmethyl-biphenyl-4-yl)-propionyl]-oxazol-5-yl}-pyridine-2-carboxylic acid], the figure is 127 nM; as for `CN(C)Cc1ccc(-c2ccc(CCC(=O)c3ncc(-c4cccc(C(=O)O)n4)o3)cc2)cc1` [Example 44, 6-{2-[3-(4′-Dimethylaminomethyl-biphenyl-4-yl)-propionyl]-oxazol-5-yl}-pyridine-2-carboxylic acid], 150 nM. `CN1CCN(Cc2ccc(-c3ccc(CCC(=O)c4ncc(-c5cccc(C(=O)O)n5)o4)cc3)cc2)CC1` [Example 45, 6-(2-{3-[4′-(4-Methyl-piperazin-1-ylmethyl)-biphenyl-4-yl]-propionyl}-oxazol-5-yl)-pyridine-2-carboxylic acid]: the Ki in experiment [1] turned out to be 1230 nM. As for `O=C(CCc1ccc(COc2ccccc2)cc1)c1ncc(-c2cccc(-c3nnn[nH]3)n2)o1` [Example 47, 3-(4-Phenoxymethyl-phenyl)-1-{5-[6-(1H-tetrazol-5-yl)-pyridin-2-yl]-oxazol-2-yl}-propan-1-one], the Ki in experiment [1] was found to be 21 nM. On to `N#Cc1cccc(-c2cnc(C(=O)CCc3ccc(COc4ccccc4)cc3)o2)n1` [Example 48], for which the Ki in experiment [1] is 3 nM.

For orientation: Ki means a measure of affinity in units of concentration, obtained from inhibition or displacement. As a reminder, the IC50 is the concentration at which inhibition is half-maximal. A higher IC50 goes with lower potency.
